From patent publication US8877707B2, “Inhibitors of HCV NS5A” (Presidio Pharmaceuticals, Inc., priority 2010, dated 2014)

The compounds below were run on HCV genotype 1b replicon in Huh 7 cells (assay: HCV replicon assay (1b_Huh-Luc/Neo-ET cell line, luciferase readout)). Conditions: Hepatitis C virus, Huh-7; HCV 1b replicon; read-out: Inhibition of HCV genotype 1b.
Type: cell-based
Summary of the method: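 Replicon level was read as luciferase signal after 72 h compound exposure, triplicate wells, starting the day after cells were plated. Cell line: 1b_Huh-Luc/Neo-ET. Values normalised to control as percent, and EC50 fitted with a variable-slope sigmoid; determinations repeated.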
`COC(=O)N[C@H](C(=O)N1CCC[C@H]1c1ncc(-c2ccc3nc(-c4ccc(-c5cnc([C@@H]6CCCN6C(=O)[C@H](NC(=O)OC6CCOCC6)c6ccccc6)[nH]5)c(F)c4)ccc3c2)[nH]1)C(C)C` [compound 452] was tested, and the EC50 was < 1 nM.
For `COC(=O)N[C@H](C(=O)N1CCC[C@H]1c1ncc(-c2ccc3nc(-c4ccc(-c5cnc([C@@H]6CCCN6C(=O)[C@H](NC(=O)OC)c6ccccc6)[nH]5)c(F)c4)ccc3c2)[nH]1)C(C)C` [compound 453], the EC50 was < 1 nM.
In the case of `COC(=O)N[C@H](C(=O)N1CCC[C@H]1c1ncc(-c2ccc3nc(-c4ccc(-c5cnc([C@@H]6CCCN6C(=O)[C@@H](NC(=O)OC)C6CCOCC6)[nH]5)c(F)c4)ccc3c2)[nH]1)C(C)C` [compound 454], the EC50 is reported as < 1 nM.
For `COC(=O)N[C@H](C(=O)N1CCCC[C@H]1c1ncc(-c2ccc(-c3ccc4cc(-c5cnc([C@@H]6CCCN6C(=O)[C@@H](NC(=O)OC)C(C)C)[nH]5)ccc4n3)cc2)[nH]1)C(C)C` [compound 455], the EC50 was < 1 nM.
In the case of `COC(=O)N[C@H](C(=O)N1CCCC[C@H]1c1ncc(-c2ccc(-c3ccc4cc(-c5cnc([C@@H]6CCCN6C(=O)[C@@H](NC(=O)OC)C6CCOCC6)[nH]5)ccc4n3)cc2)[nH]1)C1CCOCC1` [compound 456], the EC50 is reported as < 1 nM.
With `COC(=O)N[C@@H](C(=O)N1CCCC[C@H]1c1ncc(-c2ccc(-c3ccc4cc(-c5cnc([C@@H]6CCCN6C(=O)[C@H](NC(=O)OC)c6ccccc6)[nH]5)ccc4n3)cc2)[nH]1)c1ccccc1` [compound 457] the EC50 was < 1 nM.
For `O=C(N[C@@H](C(=O)N1CCCC[C@H]1c1ncc(-c2ccc(-c3ccc4cc(-c5cnc([C@@H]6CCCN6C(=O)[C@H](NC(=O)OC6CCOCC6)c6ccccc6)[nH]5)ccc4n3)cc2)[nH]1)c1ccccc1)OC1CCOCC1` [compound 458], the EC50 was < 1 nM.
For `COC(=O)N[C@@H](C)C(=O)N1CCC[C@H]1c1ncc(-c2ccc3nc(-c4ccc(-c5cnc([C@@H]6CCCN6C(=O)[C@H](NC(=O)OC)c6ccccc6)[nH]5)c(F)c4)ccc3c2)[nH]1` [compound 459], the EC50 was < 1 nM.
For `COC(=O)N[C@H](C(=O)N1CCC[C@H]1c1ncc(-c2ccc3nc(-c4ccc(-c5cnc([C@@H]6CCCN6C(=O)[C@H](NC(=O)OC)c6ccccc6)[nH]5)c(F)c4)ccc3c2)[nH]1)[C@@H](C)OC` [compound 460], the EC50 was < 1 nM.
For `COC(=O)N[C@H](C(=O)N1CCC[C@H]1c1ncc(-c2ccc3cc(-c4ccc(-c5cnc([C@@H]6CCCN6C(=O)[C@H](NC(=O)OC)c6ccccc6)[nH]5)nn4)ccc3c2)[nH]1)C(C)C` [compound 461], the EC50 was < 1 nM.
`COC[C@H](NC(=O)OC)C(=O)N1CCC[C@H]1c1ncc(-c2ccc3cc(-c4ccc(-c5cnc([C@@H]6COCCN6C(=O)[C@@H](NC(=O)OC)c6ccccc6)[nH]5)cc4)ccc3c2)[nH]1` [compound 462] was tested, and the EC50 was < 1 nM.
In the case of `COC[C@H](NC(=O)OC)C(=O)N1CCC[C@H]1c1ncc(-c2ccc(-c3ccc4cc(-c5cnc([C@@H]6CCCN6C(=O)[C@H](COC)NC(=O)OC)[nH]5)ccc4c3)cc2)[nH]1` [compound 463], the EC50 is reported as < 1 nM.
`COC(=O)N[C@@H](C)C(=O)N1CCC[C@H]1c1ncc(-c2ccc3cc(-c4ccc(-c5cnc([C@@H]6CCCN6C(=O)[C@H](NC(=O)OC)c6ccsc6)[nH]5)cc4)ccc3c2)[nH]1` [compound 464] was tested, and the EC50 was < 1 nM.
For `COC[C@H](NC(=O)OC)C(=O)N1CCC[C@H]1c1ncc(-c2ccc3cc(-c4ccc(-c5cnc([C@@H]6CCCN6C(=O)[C@H](NC(=O)OC)c6ccsc6)[nH]5)cc4)ccc3c2)[nH]1` [compound 465], the EC50 was < 1 nM.
In the case of `COC(=O)N[C@H](C(=O)N1CCC[C@H]1c1ncc(-c2ccc3cc(-c4ccc(-c5cnc([C@@H]6CCCN6C(=O)[C@H](NC(=O)OC)c6ccsc6)[nH]5)cc4)ccc3c2)[nH]1)C(C)C` [compound 466], the EC50 is reported as < 1 nM.
In the case of `COC(=O)N[C@@H](CC(C)C)C(=O)N1CCC[C@H]1c1ncc(-c2ccc3nc(-c4ccc(-c5cnc([C@@H]6CCCN6C(=O)[C@H](NC(=O)OC)c6ccccc6)[nH]5)c(F)c4)ccc3c2)[nH]1` [compound 467], the EC50 is reported as < 1 nM.
In the case of `COC(=O)N[C@H](C(=O)N1CCC[C@H]1c1ncc(-c2ccc3nc(-c4ccc(-c5cnc([C@@H]6CCCN6C(=O)[C@H](NC(=O)OC)c6ccccc6)[nH]5)c(F)c4)ccc3c2)[nH]1)C1CCCC1` [compound 468], the EC50 is reported as < 1 nM.
`COC(=O)N[C@H](C(=O)N1CCC[C@H]1c1ncc(-c2ccc3nc(-c4ccc(-c5cnc([C@@H]6CN(C(=O)OC)CCN6C(=O)[C@@H](NC(=O)OC)C(C)C)[nH]5)cc4)ccc3c2)[nH]1)C(C)C` [compound 469] was tested, and the EC50 was < 1 nM.
In the case of `COC(=O)N[C@H](C(=O)N1CCN(C(=O)OC)C[C@H]1c1ncc(-c2ccc(-c3ccc4cc(-c5cnc([C@@H]6CCCN6C(=O)[C@@H](NC(=O)OC)C6CCOCC6)[nH]5)ccc4n3)cc2)[nH]1)C(C)C` [compound 470], the EC50 is reported as < 1 nM.
`COC(=O)N[C@H](C(=O)N1CCN(C(=O)OC)C[C@H]1c1ncc(-c2ccc(-c3ccc4cc(-c5cnc([C@@H]6CCCN6C(=O)[C@H](NC(=O)OC)c6ccccc6)[nH]5)ccc4n3)cc2)[nH]1)C(C)C` [compound 471] was tested, and the EC50 was < 1 nM.
`COC(=O)N[C@H](C(=O)N1CCN(C(=O)OC)C[C@H]1c1ncc(-c2ccc(-c3ccc4cc(-c5cnc([C@@H]6CCCN6C(=O)[C@H](NC(=O)OC6CCOCC6)c6ccccc6)[nH]5)ccc4n3)cc2)[nH]1)C(C)C` [compound 472] was tested, and the EC50 was < 1 nM.
In the case of `COC(=O)N[C@H](C(=O)N1CCC[C@H]1c1ncc(-c2ccc3nc(-c4ccc(-c5cnc([C@@H]6CCCN6C(=O)[C@H](NC(=O)OC)c6ccccc6)[nH]5)c(F)c4)ccc3c2)[nH]1)C1CCOCC1` [compound 473], the EC50 is reported as < 1 nM.
For `COC(=O)N[C@@H](C(=O)N1CCC[C@H]1c1ncc(-c2ccc(-c3ccc4cc(-c5cnc([C@@H]6CCCN6C(=O)[C@H](NC(=O)OC6CCOCC6)c6ccccc6)[nH]5)ccc4n3)cc2F)[nH]1)c1ccccc1` [compound 474], the EC50 was < 1 nM.
For `COC(=O)N[C@H](C(=O)N1CCC[C@H]1c1ncc(-c2ccc(-c3ccc4cc(-c5cnc([C@@H]6CCCN6C(=O)[C@@H](NC(=O)OC)[C@@H](C)OC)[nH]5)ccc4n3)cc2F)[nH]1)C(C)C` [compound 475], the EC50 was < 1 nM.
`COC(=O)N[C@H](C(=O)N1CCC[C@H]1c1ncc(-c2cnc(-c3ccc4cc(-c5cnc([C@@H]6CCCN6C(=O)[C@@H](NC(=O)OC)C(C)C)[nH]5)ccc4c3)nc2)[nH]1)C(C)C` [compound 476] was tested, and the EC50 was < 1 nM.
For `COC[C@H](NC(=O)OC)C(=O)N1CCC[C@H]1c1ncc(-c2ccc3cc(-c4ccc(-c5cnc([C@@H]6CCCN6C(=O)[C@H](NC(=O)OC)c6ccccc6)[nH]5)nn4)ccc3c2)[nH]1` [compound 477], the EC50 was < 1 nM.
For `COC(=O)N[C@H](C(=O)N1CCC[C@H]1c1ncc(-c2ccc3cc(-c4ccc(-c5cnc([C@@H]6CCCN6C(=O)[C@H](NC(=O)OC)c6ccsc6)[nH]5)cc4)ccc3c2)[nH]1)[C@@H](C)O` [compound 478], the EC50 was < 1 nM.
With `COC(=O)N[C@H](C(=O)N1CCC[C@H]1c1ncc(-c2ccc(-c3ccc4cc(-c5cnc([C@@H]6CCCN6C(=O)[C@@H](NC(=O)OC)[C@@H](C)OC)[nH]5)ccc4c3)nc2)[nH]1)C(C)C` [compound 479] the EC50 was < 1 nM.
`COC(=O)N[C@H](C(=O)N1CCC[C@H]1c1ncc(-c2ccc3cc(-c4ccc(-c5cnc([C@@H]6CCCN6C(=O)[C@H](NC(=O)OC)c6ccccc6)[nH]5)cn4)ccc3c2)[nH]1)[C@@H](C)OC` [compound 480] was tested, and the EC50 was < 1 nM.
In the case of `COC(=O)N[C@H](C(=O)N1CCC[C@H]1c1ncc(-c2ccc(-c3ccc4cc(-c5cnc([C@@H]6CCCN6C(=O)[C@@H](NC(=O)OC)[C@@H](C)OC)[nH]5)ccc4c3)cc2)[nH]1)C(C)C` [compound 481], the EC50 is reported as < 1 nM.
With `COC(=O)N[C@H](C(=O)N1CCC[C@H]1c1ncc(-c2ccc(-c3ccc4cc(-c5cnc([C@@H]6CCCN6C(=O)[C@@H](NC(=O)OC)[C@@H](C)OC)[nH]5)ccc4n3)cc2)[nH]1)[C@@H](C)OC` [compound 482] the EC50 was < 1 nM.
With `COC(=O)N[C@H](C(=O)N1CCC[C@H]1c1ncc(-c2ccc(-c3cc4ccc(-c5cnc([C@@H]6CCCN6C(=O)[C@H](NC(=O)OC)c6ccccc6)[nH]5)cc4cn3)cc2)[nH]1)[C@@H](C)OC` [compound 483] the EC50 was < 1 nM.
In the case of `COC(=O)N[C@H](C(=O)N1CCC[C@H]1c1ncc(-c2ccc(-c3cc4ccc(-c5cnc([C@@H]6CCCN6C(=O)[C@H](NC(=O)OC)c6ccccc6)[nH]5)cc4cn3)cc2)[nH]1)[C@@H](C)O` [compound 484], the EC50 is reported as < 1 nM.
For `COC(=O)N[C@@H](C(=O)N1CCC[C@H]1c1ncc(-c2ccc(-c3ccc4cc(-c5cnc([C@@H]6CCCN6C(=O)[C@H](NC(=O)OC)c6ccsc6)[nH]5)ccc4n3)c(F)c2)[nH]1)c1ccccc1` [compound 485], the EC50 was < 1 nM.
In the case of `C=CC[C@H](NC(=O)OC)C(=O)N1CCC[C@H]1c1ncc(-c2ccc3nc(-c4ccc(-c5cnc([C@@H]6CCCN6C(=O)[C@H](NC(=O)OC)c6ccccc6)[nH]5)cc4F)ccc3c2)[nH]1` [compound 486], the EC50 is reported as < 1 nM.
In the case of `C#CC[C@H](NC(=O)OC)C(=O)N1CCC[C@H]1c1ncc(-c2ccc3nc(-c4ccc(-c5cnc([C@@H]6CCCN6C(=O)[C@H](NC(=O)OC)c6ccccc6)[nH]5)cc4F)ccc3c2)[nH]1` [compound 487], the EC50 is reported as < 1 nM.
With `COC(=O)N[C@H](C(=O)N1CCC[C@H]1c1ncc(-c2cnc3cc(-c4ccc(-c5cnc([C@@H]6CCCN6C(=O)[C@@H](NC(=O)OC)[C@@H](C)OC)[nH]5)cc4)ccc3c2)[nH]1)C(C)C` [compound 488] the EC50 was < 1 nM.
For `COC(=O)N[C@H](C(=O)N1CCC[C@H]1c1ncc(-c2ccc3nc(-c4ccc(-c5cnc([C@@H]6CCCN6C(=O)[C@H](NC(=O)OC)c6ccccc6)[nH]5)cc4)ccc3c2)[nH]1)[C@@H](C)OC` [compound 489], the EC50 was < 1 nM.
For `COC(=O)N[C@H](C(=O)N1CCC[C@H]1c1ncc(-c2ccc3nc(-c4ccc(-c5cnc([C@@H]6CCCN6C(=O)[C@H](NC(=O)OC)c6ccccc6)[nH]5)cc4)ccc3c2)[nH]1)[C@@H](C)O` [compound 490], the EC50 was < 1 nM.
With `COC(=O)N[C@@H](C)C(=O)N1CCC[C@H]1c1ncc(-c2ccc3nc(-c4ccc(-c5cnc([C@@H]6CCCN6C(=O)[C@H](NC(=O)OC)c6ccccc6)[nH]5)cc4)ccc3c2)[nH]1` [compound 491] the EC50 was < 1 nM.
